Source: publication PMC12067442 (Journal of Medicinal Chemistry, 2025)
“And” between values parts separate entries of the source, which are not always exact repeats. Equal values may be shown once. Values belong to the compound of their own block, whether it stands above or below them.

Experiments:
[1] = biological target: T1, serotonine (5-HT) transporter (SERT, SLC6A4) (Homo sapiens, UniProt P31645); assay: radioligand displacement assay on SERT (Eurofins Cerep SA); format: binding; conditions: for inhibition at 10 µM: read-out: % Inhibition @ 10 µM on SERT; for inhibition at 0.1 µM: read-out: % Inhibition @ 100 nM on SERT
T1 construct: purchased Eurofins Cerep SA
T1 sequence (P31645 whole entry): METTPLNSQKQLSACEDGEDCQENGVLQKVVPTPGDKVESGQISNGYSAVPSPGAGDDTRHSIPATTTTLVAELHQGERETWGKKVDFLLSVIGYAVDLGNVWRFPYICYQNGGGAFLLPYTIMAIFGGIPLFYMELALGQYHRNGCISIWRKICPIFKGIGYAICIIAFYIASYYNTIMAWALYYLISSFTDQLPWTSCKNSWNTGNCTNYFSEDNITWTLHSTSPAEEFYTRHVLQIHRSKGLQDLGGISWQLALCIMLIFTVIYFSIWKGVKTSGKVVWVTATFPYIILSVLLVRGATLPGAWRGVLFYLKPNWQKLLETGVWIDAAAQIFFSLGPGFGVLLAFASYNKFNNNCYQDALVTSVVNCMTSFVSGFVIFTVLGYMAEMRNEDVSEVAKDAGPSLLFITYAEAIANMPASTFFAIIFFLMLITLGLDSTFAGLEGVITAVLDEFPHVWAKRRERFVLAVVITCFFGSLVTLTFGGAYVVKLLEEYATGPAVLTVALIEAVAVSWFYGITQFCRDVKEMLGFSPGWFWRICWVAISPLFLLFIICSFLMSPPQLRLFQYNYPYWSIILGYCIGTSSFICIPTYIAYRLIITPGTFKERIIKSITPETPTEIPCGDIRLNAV

[2] = biological target: T2, norepinephrine transporter (NET, SLC6A2) (Homo sapiens, UniProt P23975); assay: radioligand displacement assay on NET (Eurofins Cerep SA); format: binding; conditions: for inhibition at 10 µM: read-out: % Inhibition @ 10 µM on NET; for inhibition at 0.01 µM: read-out: % Inhibition @ 10 nM on NET; for inhibition at 0.1 µM: read-out: % Inhibition @ 100 nM on NET
T2 construct: purchased Eurofins Cerep SA
T2 sequence (P23975 whole entry): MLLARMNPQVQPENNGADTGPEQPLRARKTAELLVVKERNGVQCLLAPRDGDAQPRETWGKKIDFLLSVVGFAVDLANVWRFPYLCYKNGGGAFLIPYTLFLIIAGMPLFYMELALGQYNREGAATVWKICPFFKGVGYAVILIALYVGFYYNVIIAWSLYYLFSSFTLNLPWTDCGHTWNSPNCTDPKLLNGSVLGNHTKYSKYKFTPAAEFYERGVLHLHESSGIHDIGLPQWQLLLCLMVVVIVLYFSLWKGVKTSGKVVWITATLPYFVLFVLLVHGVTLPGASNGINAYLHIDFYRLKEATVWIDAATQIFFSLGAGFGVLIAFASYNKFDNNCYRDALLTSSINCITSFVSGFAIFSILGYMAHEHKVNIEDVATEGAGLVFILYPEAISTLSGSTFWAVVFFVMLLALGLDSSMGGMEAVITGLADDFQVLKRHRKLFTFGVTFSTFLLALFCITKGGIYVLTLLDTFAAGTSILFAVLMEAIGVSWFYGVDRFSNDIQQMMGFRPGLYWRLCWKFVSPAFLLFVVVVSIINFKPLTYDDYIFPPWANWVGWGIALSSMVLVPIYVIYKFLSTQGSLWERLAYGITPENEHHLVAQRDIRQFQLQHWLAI

[3] = biological target: T3, dopamine transporter (DAT, SLC6A3) (Homo sapiens, UniProt Q01959); assay: radioligand displacement assay on DAT (Eurofins Cerep SA); format: binding; conditions: for inhibition at 10 µM: read-out: % Inhibition @ 10 µM on DAT; for inhibition at 0.1 µM: read-out: % Inhibition @ 100 nM on DAT
T3 construct: purchased Eurofins Cerep SA
T3 sequence (Q01959 whole entry): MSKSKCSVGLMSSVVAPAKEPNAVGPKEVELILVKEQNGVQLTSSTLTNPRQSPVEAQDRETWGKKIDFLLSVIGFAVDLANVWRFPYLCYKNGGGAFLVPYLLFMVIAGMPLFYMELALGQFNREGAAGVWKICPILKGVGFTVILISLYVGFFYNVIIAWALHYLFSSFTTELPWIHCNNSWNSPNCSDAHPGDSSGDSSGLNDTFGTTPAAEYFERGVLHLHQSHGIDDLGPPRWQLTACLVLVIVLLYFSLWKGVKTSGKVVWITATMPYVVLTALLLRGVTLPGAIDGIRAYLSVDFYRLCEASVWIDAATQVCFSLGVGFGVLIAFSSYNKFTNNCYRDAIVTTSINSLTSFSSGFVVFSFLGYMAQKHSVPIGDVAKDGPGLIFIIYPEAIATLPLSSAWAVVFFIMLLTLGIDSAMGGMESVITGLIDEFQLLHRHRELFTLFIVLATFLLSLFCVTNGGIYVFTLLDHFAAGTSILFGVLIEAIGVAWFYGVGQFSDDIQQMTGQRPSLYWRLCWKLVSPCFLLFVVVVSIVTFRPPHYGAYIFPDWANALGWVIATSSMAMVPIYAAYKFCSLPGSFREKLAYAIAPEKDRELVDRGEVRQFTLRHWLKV

Serotonin 5-HT 1B = biological target: T4, Serotonin 5-HT 1B (Homo sapiens, UniProt P28222); assay: in vitro polypharmacology panel: Serotonin 5-HT 1B; format: binding
T4 construct: purchased Eurofins Cerep SA

in vivo = conditions: both, C57BL/6JRJ, mouse, 5 mg/kg
Cannabinoid 2 = biological target: T5, Cannabinoid 2 (Homo sapiens, UniProt P34972); assay: in vitro polypharmacology panel: Cannabinoid 2; format: binding
T5 construct: purchased Eurofins Cerep SA

Dopamine D1 = biological target: T6, Dopamine D1 (Homo sapiens, UniProt P21728); assay: in vitro polypharmacology panel: Dopamine D1; format: binding
T6 construct: purchased Eurofins Cerep SA

Muscarinic M2 = biological target: T7, Muscarinic M2 (Homo sapiens, UniProt P08172); assay: in vitro polypharmacology panel: Muscarinic M2; format: binding
T7 construct: purchased Eurofins Cerep SA

hERG = biological target: T8, hERG (Homo sapiens, UniProt Q12809); assay: in vitro polypharmacology panel: hERG; format: binding
T8 construct: purchased Eurofins Cerep SA
T8 sequence (Q12809 whole entry): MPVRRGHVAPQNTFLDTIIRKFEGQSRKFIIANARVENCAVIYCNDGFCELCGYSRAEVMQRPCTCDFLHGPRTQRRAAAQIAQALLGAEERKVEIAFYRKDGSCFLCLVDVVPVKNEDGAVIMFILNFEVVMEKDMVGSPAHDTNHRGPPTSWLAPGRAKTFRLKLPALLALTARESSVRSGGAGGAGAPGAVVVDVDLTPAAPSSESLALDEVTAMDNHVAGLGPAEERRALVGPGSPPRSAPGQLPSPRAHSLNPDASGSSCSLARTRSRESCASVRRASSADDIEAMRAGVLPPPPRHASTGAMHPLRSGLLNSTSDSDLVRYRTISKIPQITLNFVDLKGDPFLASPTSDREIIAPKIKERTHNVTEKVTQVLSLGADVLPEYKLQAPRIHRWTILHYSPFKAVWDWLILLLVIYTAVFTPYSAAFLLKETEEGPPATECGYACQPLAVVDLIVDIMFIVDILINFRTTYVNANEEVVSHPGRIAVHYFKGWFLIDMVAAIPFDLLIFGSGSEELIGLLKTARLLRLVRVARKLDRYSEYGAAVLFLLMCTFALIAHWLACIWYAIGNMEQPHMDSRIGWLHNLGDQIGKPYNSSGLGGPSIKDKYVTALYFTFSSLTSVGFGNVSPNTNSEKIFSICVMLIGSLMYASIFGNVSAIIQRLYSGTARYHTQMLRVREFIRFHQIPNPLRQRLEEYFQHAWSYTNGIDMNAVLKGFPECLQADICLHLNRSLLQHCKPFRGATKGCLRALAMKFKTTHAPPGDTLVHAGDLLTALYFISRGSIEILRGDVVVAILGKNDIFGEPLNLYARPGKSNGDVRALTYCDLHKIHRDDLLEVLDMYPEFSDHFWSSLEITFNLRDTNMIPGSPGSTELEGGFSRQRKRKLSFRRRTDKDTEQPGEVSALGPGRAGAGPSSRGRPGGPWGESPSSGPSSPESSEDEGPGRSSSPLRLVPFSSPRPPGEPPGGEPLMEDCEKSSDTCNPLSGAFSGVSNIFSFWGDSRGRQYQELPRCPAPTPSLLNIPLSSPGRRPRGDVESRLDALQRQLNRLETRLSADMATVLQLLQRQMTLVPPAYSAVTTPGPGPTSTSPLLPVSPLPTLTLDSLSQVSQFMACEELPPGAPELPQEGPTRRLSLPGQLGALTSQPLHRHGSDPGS

Histaminic H1 = biological target: T9, Histaminic H1 (Homo sapiens, UniProt P35367); assay: in vitro polypharmacology panel: Histaminic H1; format: binding
T9 construct: purchased Eurofins Cerep SA
T9 sequence (P35367 whole entry): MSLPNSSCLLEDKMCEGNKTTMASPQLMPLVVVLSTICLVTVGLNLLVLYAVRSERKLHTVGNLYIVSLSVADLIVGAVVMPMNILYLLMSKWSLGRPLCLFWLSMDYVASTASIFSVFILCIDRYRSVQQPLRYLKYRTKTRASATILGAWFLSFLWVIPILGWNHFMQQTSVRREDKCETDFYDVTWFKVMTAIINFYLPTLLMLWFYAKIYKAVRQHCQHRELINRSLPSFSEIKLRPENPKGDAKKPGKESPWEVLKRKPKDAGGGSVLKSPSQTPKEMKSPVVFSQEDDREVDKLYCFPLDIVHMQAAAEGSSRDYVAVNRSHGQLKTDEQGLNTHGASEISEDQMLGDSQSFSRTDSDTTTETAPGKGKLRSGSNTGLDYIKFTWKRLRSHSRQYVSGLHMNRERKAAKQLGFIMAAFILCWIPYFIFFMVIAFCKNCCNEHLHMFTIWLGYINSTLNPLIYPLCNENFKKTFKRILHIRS

Histaminic H3 = biological target: T10, Histaminic H3 (Homo sapiens, UniProt Q9Y5N1); assay: in vitro polypharmacology panel: Histaminic H3; format: binding
T10 construct: purchased Eurofins Cerep SA

Serotonin 5-HT 2B = biological target: T11, Serotonin 5-HT 2B (Homo sapiens, UniProt P41595); assay: in vitro polypharmacology panel: Serotonin 5-HT 2B; format: binding
T11 construct: Eurofins Cerep SA (France), contract assay

ACHe = biological target: T12, ACHe (Homo sapiens, UniProt P22303); assay: in vitro polypharmacology panel: ACHe; format: binding
T12 construct: purchased Eurofins Cerep SA
T12 sequence (P22303 32-614): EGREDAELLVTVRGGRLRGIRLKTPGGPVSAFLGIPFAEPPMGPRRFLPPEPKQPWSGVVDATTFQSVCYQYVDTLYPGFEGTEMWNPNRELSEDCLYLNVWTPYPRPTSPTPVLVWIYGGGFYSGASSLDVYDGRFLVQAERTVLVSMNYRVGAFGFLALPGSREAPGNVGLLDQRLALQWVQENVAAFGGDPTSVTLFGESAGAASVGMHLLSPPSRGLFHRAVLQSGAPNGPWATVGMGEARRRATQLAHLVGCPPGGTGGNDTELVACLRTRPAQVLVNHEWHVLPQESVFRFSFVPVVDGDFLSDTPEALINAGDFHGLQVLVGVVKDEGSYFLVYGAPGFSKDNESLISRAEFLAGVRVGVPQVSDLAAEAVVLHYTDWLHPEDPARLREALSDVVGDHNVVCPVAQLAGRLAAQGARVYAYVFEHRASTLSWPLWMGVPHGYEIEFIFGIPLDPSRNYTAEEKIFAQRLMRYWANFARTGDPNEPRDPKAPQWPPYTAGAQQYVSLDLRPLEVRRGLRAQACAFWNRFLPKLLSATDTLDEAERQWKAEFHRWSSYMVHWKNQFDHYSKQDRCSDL

Serotonin 5-HT 3 = biological target: T13, Serotonin 5-HT 3 (Homo sapiens, UniProt P46098); assay: in vitro polypharmacology panel: Serotonin 5-HT 3; format: binding
T13 construct: Eurofins Cerep SA (France), contract assay

σ-1R = biological target: T14, σ-1R (Homo sapiens, UniProt Q99720); assay: radioligand displacement assay on σ-1R (Eurofins Cerep SA); format: binding; conditions: estimated from duplicate dilution series; read-out: IC50 (nM) sigma-1R
T14 construct: purchased Eurofins Cerep SA
T14 sequence (Q99720 whole entry, species assumed): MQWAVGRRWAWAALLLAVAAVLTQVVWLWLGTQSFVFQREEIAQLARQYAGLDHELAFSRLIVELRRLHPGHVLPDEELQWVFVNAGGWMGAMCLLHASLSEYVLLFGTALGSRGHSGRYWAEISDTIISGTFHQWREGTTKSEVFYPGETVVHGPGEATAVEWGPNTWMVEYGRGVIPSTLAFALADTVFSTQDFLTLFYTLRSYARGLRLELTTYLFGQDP

Serotonin 5-HT 2A = biological target: T15, Serotonin 5-HT 2A (Homo sapiens, UniProt P28223); assay: in vitro polypharmacology panel: Serotonin 5-HT 2A; format: binding
T15 construct: Eurofins Cerep SA (France), contract assay

HEK-Gly-RA1 = biological target: T16, HEK-Gly-RA1 (Homo sapiens, UniProt P23415); assay: in vitro polypharmacology panel: HEK-Gly-RA1; format: binding
T16 construct: host or cells: HEK

Cannabinoid = biological target: T17, Cannabinoid (Homo sapiens, UniProt P21554); assay: in vitro polypharmacology panel: Cannabinoid; format: binding
T17 construct: purchased Eurofins Cerep SA

Dopamine D2L = biological target: T18, Dopamine D2L (Homo sapiens, UniProt P14416); assay: in vitro polypharmacology panel: Dopamine D2L; format: binding
T18 construct: purchased Eurofins Cerep SA
T18 sequence (P14416 whole entry): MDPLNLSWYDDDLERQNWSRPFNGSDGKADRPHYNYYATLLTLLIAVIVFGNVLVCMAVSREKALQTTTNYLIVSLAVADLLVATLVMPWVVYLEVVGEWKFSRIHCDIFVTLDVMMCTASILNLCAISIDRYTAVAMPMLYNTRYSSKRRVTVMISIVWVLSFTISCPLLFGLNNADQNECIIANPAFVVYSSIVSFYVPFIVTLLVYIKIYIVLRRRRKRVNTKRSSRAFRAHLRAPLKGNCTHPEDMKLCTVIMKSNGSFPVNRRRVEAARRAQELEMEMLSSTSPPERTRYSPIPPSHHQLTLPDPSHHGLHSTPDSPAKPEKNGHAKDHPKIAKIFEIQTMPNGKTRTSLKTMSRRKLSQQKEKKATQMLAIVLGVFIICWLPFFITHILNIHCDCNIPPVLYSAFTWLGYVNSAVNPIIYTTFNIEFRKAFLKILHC

Histaminic H2 = biological target: T19, Histaminic H2 (Homo sapiens, UniProt P25021); assay: in vitro polypharmacology panel: Histaminic H2; format: binding
T19 construct: purchased Eurofins Cerep SA

Dopamine D2s = biological target: T20, Dopamine D2s (Homo sapiens, UniProt P14416); assay: in vitro polypharmacology panel: Dopamine D2s; format: binding
T20 construct: purchased Eurofins Cerep SA

mice = assay: observation of mice after acute i.p. administration; format: in vivo, C57Bl6/J mice; conditions: 1.0 or 10 mg/kg i.p., male mice
Text: Fresh bedding and environmental enrichment were provided weekly.

Dopamine D3 = biological target: T21, Dopamine D3 (Homo sapiens, UniProt P35462); assay: in vitro polypharmacology panel: Dopamine D3; format: binding
T21 construct: purchased Eurofins Cerep SA

Muscarinic M1 = biological target: T22, Muscarinic M1 (Homo sapiens, UniProt P11229); assay: in vitro polypharmacology panel: Muscarinic M1; format: binding
T22 construct: purchased Eurofins Cerep SA

Serotonin 5-HT 1A = biological target: T23, Serotonin 5-HT 1A (Homo sapiens, UniProt P08908); assay: in vitro polypharmacology panel: Serotonin 5-HT 1A; format: binding
T23 construct: purchased Eurofins Cerep SA

[4] = tested on: dopamine (DA) uptake in PC12 cells; assay: cells; conditions: Rattus norvegicus, PC-12, 2 h, read-out: IC50 (nM) - DA Uptake Inhibition
Text: The system was operated in positive mode. […] MS peaks were quantified using a calibration curve.

Compound: C1CC[C@@H]2NCCC[C@H]2NC1 (relative stereo) [3b]
inhibition at 10 µM [1]: 11.8%
inhibition at 10 µM [2]: 8.8%
inhibition at 10 µM [3]: -5.2%

Compound: c1ccc(CN2CCCC[C@@H]3NCC[C@H]32)cc1 [1b, 4-Benzyldecahydropyrrolo[3,2-b]azepine]
inhibition at 10 µM [1]: 68.6%
inhibition at 10 µM [3]: 81.8%

Compound: c1ccc(CN2CCCC[C@H]3NCC[C@H]32)cc1 [(R,R)-1a, (3aR,8aR)-4-Benzyldecahydropyrrolo[3,2-b]azepine]
Serotonin 5-HT 1B (5 µM) (Serotonin 5-HT 1B): -19.8
AUC (in vivo; iv): 799 ng·h/mL
AUC (in vivo; po): 36.6 ng·h/mL
Tmax (in vivo; po): 15 min
Cannabinoid 2 (5 µM) (Cannabinoid 2): 11.9
Dopamine D1 (5 µM) (Dopamine D1): 3.5
Muscarinic M2 (5 µM) (Muscarinic M2): 28.5
hERG (5 µM) (hERG): 12.2
Histaminic H1 (5 µM) (Histaminic H1): -4.3
Histaminic H3 (5 µM) (Histaminic H3): 8.6
Serotonin 5-HT 2B (5 µM) (Serotonin 5-HT 2B): 29.7
ACHe (5 µM) (ACHe): 3.8
Serotonin 5-HT 3 (5 µM) (Serotonin 5-HT 3): 5.2
IC50 (σ-1R): ~110 nM and 110 nM
IC50 [1]: 250 ± 32 nM
inhibition at 0.1 µM [1]: 26.3%
inhibition at 10 µM [1]: 95.9%
Serotonin 5-HT 2A (5 µM) (Serotonin 5-HT 2A): -0.9
HEK-Gly-RA1 (5 µM) (HEK-Gly-RA1): 4
Cannabinoid (5 µM) (Cannabinoid): -13.4
Dopamine D2L (5 µM) (Dopamine D2L): -0.3
Histaminic H2 (Histaminic H2): -2
Dopamine D2s (5 µM) (Dopamine D2s): 11.7
phenotype upon acute treatment (mice; already after 40 min): pronounced sedative or lethargic phenotype
signs of acute toxicity (piloerection, hunched posture, convulsions, gastrointestinal distress) (mice): no signs of acute toxicity
IC50 [3]: 230 ± 12 nM
inhibition at 0.1 µM [3]: 29.8%
inhibition at 10 µM [3]: 97.2%
Dopamine D3 (5 µM) (Dopamine D3): 6.1
Muscarinic M1 (5 µM) (Muscarinic M1): 78.7
Serotonin 5-HT 1A (5 µM) (Serotonin 5-HT 1A): 18.9

Compound: COc1ccc(C(CN(C)C)C2(O)CCCCC2)cc1 (stereo not shown) [Venla, venlafaxine]
IC50 [4]: 1340 ± 128 nM

Compound: Brc1cccc(CN2CCCC[C@H]3NCC[C@H]32)c1 [(R,R)-61, (3aR,8aR)-4-(3-Bromobenzyl)decahydropyrrolo[3,2-b]azepine]
inhibition at 0.1 µM [1]: 96.9%
inhibition at 0.01 µM [2]: 56.7%
inhibition at 0.1 µM [2]: 91.4%
inhibition at 0.1 µM [3]: 58%

Compound: (3aR,8aR)-4-(3,5-Dichlorobenzyl)decahydropyrrolo[3,2-b]azepine [(R,R)-63]
% Inhibition @ 100 nM on SERT [1]: 99.7%
% Inhibition @ 10 nM on NET [2]: 63.4%
% Inhibition @ 100 nM on NET [2]: 93.7%
% Inhibition @ 100 nM on DAT [3]: 89%

Compound: C1CC[C@@H]2NCC[C@H]2NC1 (relative stereo) [2b, Decahydropyrrolo[3,2-b]azepine]
inhibition at 10 µM [1]: -1.9%
inhibition at 10 µM [2]: 3%
inhibition at 10 µM [3]: 13.6%

Compound: c1ccc(CN2CCCC[C@@H]3NCCC[C@H]32)cc1 [40b, 5-Benzyldecahydro-1H-pyrido[3,2-b]azepine]
inhibition at 10 µM [1]: 71%
inhibition at 10 µM [2]: 60%
inhibition at 10 µM [3]: 41%

Compound: (3aR,8aR)-4-(2,3-Dichlorobenzyl)decahydropyrrolo[3,2-b]azepine [(R,R)-62]
% Inhibition @ 100 nM on SERT [1]: 97.8%
% Inhibition @ 10 nM on NET [2]: 74.8%
% Inhibition @ 100 nM on NET [2]: 96.4%
% Inhibition @ 100 nM on DAT [3]: 15.4%

Compound: C1CCC2NCCCCC2NC1 (stereo not shown) [4b, Dodecahydroazepino[3,2-b]azepine]
inhibition at 10 µM [1]: -1%
inhibition at 10 µM [2]: -7.1%
inhibition at 10 µM [3]: -0.5%

Compound: c1ccc(CN2CC[C@H]3NCCCC[C@@H]32)cc1 (relative stereo) [17b, 1-Benzyldecahydropyrrolo[3,2-b]azepine]
inhibition at 10 µM [1]: 13.7%
inhibition at 10 µM [2]: 10.8%
inhibition at 10 µM [3]: 89%

Compound: C1CC[C@H]2NCC[C@H]2NC1 (relative stereo) [2a, Decahydropyrrolo[3,2-b]azepine]
inhibition at 10 µM [1]: 7.6%
inhibition at 10 µM [2]: 1.7%
inhibition at 10 µM [3]: 6.4%

Compound: c1ccc(CN2CCCC[C@@H]3NCCCC[C@H]32)cc1 [44b, 6-Benzyldodecahydroazepino[3,2-b]azepine]
inhibition at 10 µM [1]: 59.4%
inhibition at 10 µM [2]: 31.5%
inhibition at 10 µM [3]: 74.9%

Compound: Clc1cccc(CN2CCCC[C@H]3NCC[C@H]32)c1 [(R,R)-59, (3aR,8aR)-4-(3-chlorobenzyl)decahydropyrrolo[3,2-b]azepine]
inhibition at 0.1 µM [1]: 98%
inhibition at 0.01 µM [2]: 55.9%
inhibition at 0.1 µM [2]: 97.1%
inhibition at 0.1 µM [3]: 74.9%

Compound: c1ccc(CN2CCCC[C@H]3NCCC[C@H]32)cc1 [40a, 5-Benzyldecahydro-1H-pyrido[3,2-b]azepine]
inhibition at 10 µM [1]: 91%
inhibition at 10 µM [2]: 88.7%
inhibition at 10 µM [3]: 94.4%

Compound: c1ccc(CN2CCCC[C@@H]3NCC[C@@H]32)cc1 [(S,S)-1a, (3aS,8aS)-4-Benzyldecahydropyrrolo[3,2-b]azepine]
inhibition at 10 µM [1]: 91%
inhibition at 10 µM [3]: 94.4%

IC50 [4]: 11 ± 2.3 nM
Compound: Clc1ccc2c(c1)C(N1CCNCC1)=Nc1ccccc1O2 [Amox, amoxapine]

Compound: c1ccc(CN2CCC[C@H]3NCCCC[C@H]32)cc1 (relative stereo) [27a, 1-Benzyldecahydro-1H-pyrido[3,2-b]azepine]
inhibition at 10 µM [1]: 87.7%
inhibition at 10 µM [2]: 13.9%
inhibition at 10 µM [3]: 85.5%

Compound: Clc1ccccc1CN1CCCC[C@H]2NCC[C@H]21 [(R,R)-60, (3aR,8aR)-4-(2-Chlorobenzyl)decahydropyrrolo[3,2-b]azepine]
inhibition at 0.1 µM [1]: 69.1%
inhibition at 0.01 µM [2]: 24%
inhibition at 0.1 µM [2]: 83.4%
inhibition at 0.1 µM [3]: 37.5%

Compound: c1ccc(CN2CCC[C@H]3NCCCC[C@@H]32)cc1 (relative stereo) [27b, 1-Benzyldecahydro-1H-pyrido[3,2-b]azepine]
inhibition at 10 µM [1]: 6.9%
inhibition at 10 µM [2]: -5.1%
inhibition at 10 µM [3]: 19.4%

Compound: c1ccc(CN2CC[C@H]3NCCCC[C@H]32)cc1 (relative stereo) [17a, 1-Benzyldecahydropyrrolo[3,2-b]azepine]
inhibition at 10 µM [1]: 21.4%
inhibition at 10 µM [2]: 21.7%
inhibition at 10 µM [3]: 78.3%

Compound: Clc1ccc(CN2CCCC[C@H]3NCC[C@H]32)cc1 [(R,R)-58, (3aR,8aR)-4-(4-Chlorobenzyl)decahydropyrrolo[3,2-b]azepine]
inhibition at 0.1 µM [1]: 78.2%
inhibition at 0.01 µM [2]: -15.2%
inhibition at 0.1 µM [2]: 6.4%
inhibition at 0.1 µM [3]: 12%
